The values below come from article PMC8623273, “Novel N7-Arylmethyl Substituted Dinucleotide mRNA 5′ cap Analogs: Synthesis and Evaluation as Modulators of Translation” (Pharmaceutics, 2021).

Structures are written as SMILES.

One data set addresses T1, hDcpS (Homo sapiens, UniProt Q96C86).
T1 sequence (Q96C86 1-337): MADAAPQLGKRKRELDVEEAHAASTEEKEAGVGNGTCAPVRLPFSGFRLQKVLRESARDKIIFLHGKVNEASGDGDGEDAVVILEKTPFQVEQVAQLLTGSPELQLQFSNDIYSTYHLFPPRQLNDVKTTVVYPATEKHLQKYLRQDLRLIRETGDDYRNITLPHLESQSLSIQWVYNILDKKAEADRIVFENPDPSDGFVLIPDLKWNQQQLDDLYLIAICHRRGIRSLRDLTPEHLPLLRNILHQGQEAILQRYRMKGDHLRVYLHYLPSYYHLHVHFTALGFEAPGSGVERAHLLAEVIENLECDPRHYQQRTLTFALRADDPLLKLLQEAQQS
Type of data set: in vitro ADME. Particulars: 100 μM compound, 20 nM hDcpS; for hDcpS Assay: fraction of the cap remaining after 1 h incubation with DcpS: 37 °C. The procedure: Susceptibility to decapping scavenger (DcpS) is one of the factors that could potentially influence the cellular stability of mono- and dinucleotide cap analogs designed as translational inhibitors. Therefore, we studied the susceptibility of arylmethyl-modified dinucleotides to DcpS. The compounds (at 100 μM concentration each) were incubated with 20 nM of hDcpS, and the hydrolysis progress at different time points was analyzed via RP HPLC and compared to m^7GpppG (Figure 4 and Figure S3).
The enzymatic activity of DcpS was assayed at 37 °C in 50 mM Tris∙HCl, pH 7.6 containing 200 mM KCl, 0.5 mM EDTA. DcpS cleavage assays were carried out with 100 μM of the tested compound and 20 nM (monomer) of the hDcpS. Enzymatic reaction progress was examined after 30, 60 and 180 min. As a control, a sample was examined before adding enzyme. Aliquots of 15 μL were terminated by heat inactivation of the enzyme for 3 min at 98 °C. The samples were analyzed via RP HPLC equipped with a Supelcosil LC-18-T column (4.6 × 250 mm, 5 μm, flow rate 1.3 mL/min).

Data set [1] has as its target eukaryotic translation initiation factor 4E (eIF4E) (Mus musculus, UniProt P63073). Description: pyrene-probe fluorescent competitive-binding assay (PyFLINT-B) for cap analog-eIF4E. Particulars: for EC50: Table S2; for effect of the N7 substituent on eIF4E binding (in words): compared to m^7GpppG / 1a or unmodified counterpart; for Kd: pyrene-based high-throughput competition assay, 30 °C, KD calculated from EC50, read-out: KD Cap-eIF4E ± SD. The source says: High affinity for eIF4E is a desirable feature of cap analogs designed for modulating translation, either as small molecules or as a part of mRNA. Thus, we studied how different substituents at the N7-position affected eIF4E-cap interaction. To this end, we first determined the affinity of m^7GpppG and Bn^7GpppG (1a) using time-synchronized fluorescence quenching titration, a very precise and well-established, but low-throughput method. Next, to evaluate the whole set of the synthesized compounds (1a–1r), we used a high-throughput competitive-binding assay based on a pyrene-labeled fluorescent probe. From this assay we determined relative affinities of the compounds represented by half-effective concentrations (EC50) (Figure 3A–C), which were then used to calculate dissociation constant (KD) values for cap analog–eIF4E complexes using previously reported equations (Table 2, Figure 3D).
To determine the dissociation constants of the library of N7-benzylated dinucleotide 5′ cap analogs for translation initiation factor 4E, a fluorescent competitive-binding assay (PyFLINT-B) was applied as previously described. The experiments were performed on a Synergy™ H1 plate reader in 96-well, black, non-binding assay plates. Each well contained an appropriate buffer (50 mM Hepes/KOH pH 7.2, 100 mM KCl and 0.5 mM EDTA), pyrene probe m^7Gp5C4Py (10 nM), substrate (in half-logarithmic dilutions from 850 μM to 0.03 μM for compound 1m and from 100 μM to 0.003 μM for m^7GpppG and the rest of the compounds) and protein eIF4E (75 nM). The m^7Gp5C4Py was synthesized as describer earlier. The pyrene probe was dissolved in water and concentration was determined spectrometrically at 345 nm using the extinction coefficient (21,000 M^−1 cm^−1). The eIF4E protein was centrifuged after defrosting (5 min, 4 °C, 10k rcf) and its concentration was determined spectrometrically at 280 nm using the extinction coefficient (52,940 M^−1 cm^−1). The reaction mixtures were preincubated (15 min, 300 rpm, 30 °C). All measurements were performed at 30 °C and the fluorescence detection at 345 nm excitation and 378 nm emission was recorded.
To determine EC50 values, GraphPad Prism 9.1.2 software was used. To fit the curves to the obtained data we used the following formula:(1) Y=Bottom+ Top−Bottom/1+ X/EC50 where: X, cap analog (ligand) concentration; EC50, concentration of the cap analog resulting in half-maximal response from the fluorescent probe–protein complex; Bottom, minimal signal from the negative control, which contains only the free probe; Top, maximal signal from the positive control, the mixture of the protein and the fluorescent probe.
The dissociation constants KD were then calculated using the equation described by Nikolovska-Coleska et al.:(2) KD=EC50−Pt+PL50KD_probe/L50+1/L50/KD_probe+P0/KD_probe+1 where: EC50, concentration of the cap analog resulting in half-maximal response from the fluorescent probe–protein complex; [Pt], total protein concentration; [PL]50, concentration of the probe–protein complex at 50% inhibition; KD_probe, dissociation constant of the complex between the fluorescent probe and the protein; [L]50, probe concentration at 50% inhibition; [P]0, free protein concentration at 0% inhibition.

Sequence of eukaryotic translation initiation factor 4E (eIF4E) (P63073 whole entry): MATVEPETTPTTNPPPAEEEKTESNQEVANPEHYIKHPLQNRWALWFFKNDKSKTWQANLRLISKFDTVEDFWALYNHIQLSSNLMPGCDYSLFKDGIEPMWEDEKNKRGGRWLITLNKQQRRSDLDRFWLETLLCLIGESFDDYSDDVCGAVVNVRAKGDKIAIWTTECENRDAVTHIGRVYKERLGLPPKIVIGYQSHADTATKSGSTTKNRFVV

Take `Nc1nc(O)c2c(n1)n([C@@H]1O[C@H](COP(=O)(O)OP(=O)([O-])OP(=O)(O)OC[C@H]3O[C@@H](n4cnc5c(=O)[nH]c(N)nc54)[C@H](O)[C@@H]3O)[C@@H](O)[C@H]1O)c[n+]2Cc1ccc([N+](=O)[O-])cc1` [1n, 4-NO2-Bn^7GpppG]: on hDcpS, the “conversion after 1 h of incubation with hDcpS” value (“conversion after 1 h” for short) is on record as roughly 70% and the “hDcpS Assay: fraction of the cap remaining after 1 h incubation with DcpS” value is 0.75. In data set [1], the EC50 is 4.3 µM, the “effect of the N7 substituent on eIF4E binding (in words)” value (shortened to “effect of the N7 substituent”) is recorded as “accepted by the protein” and the Kd is 0.367 ± 0.071 µM.
Regarding `Nc1nc(O)c2c(n1)n([C@@H]1O[C@H](COP(=O)(O)OP(=O)([O-])OP(=O)(O)OC[C@H]3O[C@@H](n4cnc5c(=O)[nH]c(N)nc54)[C@H](O)[C@@H]3O)[C@@H](O)[C@H]1O)c[n+]2Cc1ccc(F)cc1` [1g, 4-F-Bn^7GpppG], at hDcpS, the “conversion after 1 h” value is reported as roughly 70% and the “hDcpS Assay: fraction of the cap remaining after 1 h incubation with DcpS” value turned out to be 0.76. Also, in data set [1], the EC50 was 3.1 µM and the equilibrium dissociation constant (Kd) was 0.261 ± 0.054 µM.
As for `Nc1nc(O)c2c(n1)n([C@@H]1O[C@H](COP(=O)(O)OP(=O)([O-])OP(=O)(O)OC[C@H]3O[C@@H](n4cnc5c(=O)[nH]c(N)nc54)[C@H](O)[C@@H]3O)[C@@H](O)[C@H]1O)c[n+]2Cc1ccc(Cl)cc1` [1h, 4-Cl-Bn^7GpppG], on hDcpS, the “conversion after 1 h” value was roughly 70% and the “hDcpS Assay: fraction of the cap remaining after 1 h incubation with DcpS” value worked out at 0.67. Further, in data set [1], the EC50 is 2.6 µM and the Kd is 0.221 ± 0.037 µM.
For `Nc1nc(O)c2c(n1)n([C@@H]1O[C@H](COP(=O)(O)OP(=O)([O-])OP(=O)(O)OC[C@H]3O[C@@H](n4cnc5c(=O)[nH]c(N)nc54)[C@H](O)[C@@H]3O)[C@@H](O)[C@H]1O)c[n+]2Cc1ccc(Br)cc1` [1i, 4-Br-Bn^7GpppG], at hDcpS, the “conversion after 1 h” value is listed as roughly 70% and the “hDcpS Assay: fraction of the cap remaining after 1 h incubation with DcpS” value came to 0.60. In addition, in data set [1], the EC50 was 2 µM and the Kd is 0.172 ± 0.026 µM.
In the case of `CC(C)c1ccc(C[n+]2cn([C@@H]3O[C@H](COP(=O)(O)OP(=O)([O-])OP(=O)(O)OC[C@H]4O[C@@H](n5cnc6c(=O)[nH]c(N)nc65)[C@H](O)[C@@H]4O)[C@@H](O)[C@H]3O)c3nc(N)nc(O)c32)cc1` [1e, 4-iPrBn^7GpppG], at hDcpS, the “susceptibility to hDcpS (in words)” value was “Lower susceptibility to hydrolysis” and the “hDcpS Assay: fraction of the cap remaining after 1 h incubation with DcpS” value came to 0.94. Moreover, in data set [1], the EC50 is 6.2 µM, the “effect of the N7 substituent” value is “KD increased more than double” and the Kd was 0.534 ± 0.1 µM.
In the case of `Cn1c[n+]([C@@H]2O[C@H](COP(=O)(O)OP(=O)([O-])OP(=O)(O)OC[C@H]3O[C@@H](n4cnc5c(=O)[nH]c(N)nc54)[C@H](O)[C@@H]3O)[C@@H](O)[C@H]2O)c2nc(N)[nH]c(=O)c21` [m^7GpppG, reference compound], at hDcpS, the “conversion after 1 h” value is recorded as “approximately 50%” and the “hDcpS Assay: fraction of the cap remaining after 1 h incubation with DcpS” value came to 0.49. Besides, in data set [1], the EC50 turned out to be 2.7 ± 0.3 µM and the Kd is 0.229 ± 0.037 µM.
For the compound `Nc1nc(O)c2c(n1)n([C@@H]1O[C@H](COP(=O)(O)OP(=O)([O-])OP(=O)(O)OC[C@H]3O[C@@H](n4cnc5c(=O)[nH]c(N)nc54)[C@H](O)[C@@H]3O)[C@@H](O)[C@H]1O)c[n+]2Cc1ccc(F)c(F)c1` [1k, 3,4-di-F-Bn^7GpppG], at hDcpS, the “conversion after 1 h” value is on record as roughly 70% and the “hDcpS Assay: fraction of the cap remaining after 1 h incubation with DcpS” value was 0.70. In data set [1], the EC50 is 5.7 µM and the dissociation constant Kd is 0.489 ± 0.077 µM.
Turning to `Nc1nc(O)c2c(n1)n([C@@H]1O[C@H](COP(=O)(O)OP(=O)([O-])OP(=O)(O)OC[C@H]3O[C@@H](n4cnc5c(=O)[nH]c(N)nc54)[C@H](O)[C@@H]3O)[C@@H](O)[C@H]1O)c[n+]2Cc1ccc(C(F)(F)F)cc1` [1l, 4-CF3-Bn^7GpppG], on hDcpS, the “susceptibility to hDcpS (in words)” value is “Lower susceptibility to hydrolysis” and the “hDcpS Assay: fraction of the cap remaining after 1 h incubation with DcpS” value came out at 0.87. Further, the Kd in data set [1] was 0.293 ± 0.043 µM.
With `CO[C@@H]1[C@H](O)[C@@H](COP(=O)(O)OP(=O)([O-])OP(=O)(O)OC[C@H]2O[C@@H](n3cnc4c(=O)[nH]c(N)nc43)[C@H](O)[C@@H]2O)O[C@H]1n1c[n+](Cc2ccc(Cl)cc2)c2c(O)nc(N)nc21` [1r, 4-Cl-Bn^7GmpppG], at hDcpS, the “susceptibility to hDcpS (in words)” value is given as “resistant to hDcpS” and the “hDcpS Assay: fraction of the cap remaining after 1 h incubation with DcpS” value is listed as 0.99. For the same compound, in data set [1], the EC50 was 1.6 µM, the “effect of the N7 substituent” value was “twofold increase in cap-binding affinity” and the Kd is 0.132 ± 0.02 µM.
Regarding `Cc1cccc(C[n+]2cn([C@@H]3O[C@H](COP(=O)(O)OP(=O)([O-])OP(=O)(O)OC[C@H]4O[C@@H](n5cnc6c(=O)[nH]c(N)nc65)[C@H](O)[C@@H]4O)[C@@H](O)[C@H]3O)c3nc(N)nc(O)c32)c1` [1c, 3-MeBn^7GpppG], at hDcpS, the “susceptibility to hDcpS (in words)” value was “very slowly hydrolyzed” and the “hDcpS Assay: fraction of the cap remaining after 1 h incubation with DcpS” value is listed as 0.84. In data set [1], the EC50 was 3.7 µM and the Kd is 0.319 ± 0.055 µM.
For `Nc1nc(O)c2c(n1)n([C@@H]1O[C@H](COP(=O)(O)OP(=O)([O-])OP(=O)(O)OC[C@H]3O[C@@H](n4cnc5c(=O)[nH]c(N)nc54)[C@H](O)[C@@H]3O)[C@@H](O)[C@H]1O)c[n+]2Cc1ccccc1` [1a, Bn^7GpppG], on hDcpS, the “conversion after 1 h” value is listed as “approximately 50%” and the “hDcpS Assay: fraction of the cap remaining after 1 h incubation with DcpS” value stood at 0.51. Besides, the Kd in data set [1] was 0.217 ± 0.036 µM.
Regarding `CO[C@@H]1[C@H](O)[C@@H](COP(=O)(O)OP(=O)([O-])OP(=O)(O)OC[C@H]2O[C@@H](n3cnc4c(=O)[nH]c(N)nc43)[C@H](O)[C@@H]2O)O[C@H]1n1c[n+](Cc2ccccc2)c2c(O)nc(N)nc21` [1q, Bn^7GmpppG], at hDcpS, the “susceptibility to hDcpS (in words)” value is reported as “resistant to hDcpS” and the “hDcpS Assay: fraction of the cap remaining after 1 h incubation with DcpS” value is 0.97. For the same compound, in data set [1], the 50% effective concentration (EC50) is 2 µM, the “effect of the N7 substituent” value was “twofold increase in cap-binding affinity” and the Kd was 0.171 ± 0.025 µM.
